Patent EP4252780A1, “BIOLOGICALLY ACTIVE MATERIAL CONJUGATE HAVING BIOTIN MOIETY, FATTY ACID MOIETY, OR COMBINATION THEREOF COUPLED THERETO” (priority 2020, dated 2022)
Non-standard residues stand in square brackets, D forms with d. No end group written: not given here. F14 = C20-Glu-EG2-EG2-MAL; B38 = not defined here; Aib = CC(C)(N)C(=O)O

Test: body weight change after 2 weeks of subcutaneous administration in obese mouse model
Assay type: in vivo
Details: subcutaneous for 2 weeks, FIG. 10
Protocol: Conjugates 58 and 59 were subcutaneously administered for 2 weeks into an obese mouse model, then body weight changes were measured.
For “Conjugate 59: polypeptide SEQ ID NO 8; biotin moiety B38 at K12; fatty acid moiety F14 at C30 (H[Aib]QGTFTSDYSK(B38)YLDEQAAKEFVQWLMNTC(F14); reading uncertain)”, the “body weight compared to the untreated group” value was “substantially reduced”.

Test: body weight reduction and feed intake over 24 hours after oral administration
Assay type: in vivo
Details: oral administration to mice
In the case of “Polypeptide SEQ ID NO 28: amylin derivative KCNTATCATQRLADFLLRHSSNNFGAIPSSTNVGSRTY (KCNTATCATQRLADFLRHSSNNFGAIPSSTNVGSRTY; Amylin derivative) [reference compound]”, the “Weight loss (%) compared to untreated group” value (“Weight loss (%)” below) is reported as -1.11 ± 0.84%. With “Conjugate 33: polypeptide SEQ ID NO 24; biotin moiety B38 at K1 (K(B38)CNTATCATQRLANFLVHSSNNFGPILPPTNVGSNTY; ends and bridges not checked)” the “Weight loss (%)” value was -4.07 ± 1.30%. In the case of “Polypeptide SEQ ID NO 30: amylin derivative RCNTATCATQRLADFLLRHSSNNFGAIPSSTNVGSKTY (RCNTATCATQRLADFLRHSSNNFGAIPSSTNVGSKTY; Amylin derivative) [reference compound]”, the “Weight loss (%)” value is reported as -1.17 ± 0.76%. In the case of “Polypeptide SEQ ID NO 26: amylin derivative KCNTATCATQRLADFLLRHSSPNFGAIPSSTNVGSRTY (KCNTATCATQRLADFLRHSSPNFGAIPSSTNVGSRTY; Amylin derivative) [reference compound]”, the “Weight loss (%)” value is reported as -3.13 ± 1.05%. With “Conjugate 61: polypeptide SEQ ID NO 24; biotin moiety B38 at K1; fatty acid moiety F11 at K1 (K(B38)CNTATCATQRLANFLVHSSNNFGPILPPTNVGSNTY; ends and bridges not checked; also: fatty acid F11 also at K1, attachment order not given here)” the “Weight loss (%)” value was -2.96 ± 4.22%. For “Polypeptide SEQ ID NO 24: amylin derivative KCNTATCATQRLANFLVHSSNNFGPILPPTNVGSNTY (Amylin derivative) [reference compound]”, the “Weight loss (%)” value was -2.63 ± 1.06%.
